Assay results reported in patent US6689792B2, “Antipsychotic indolyl derivatives” (Wyeth, priority 1998, dated 2004).
Structures can show the parent of a compound that is named as a salt.

What was measured:
human 5HT1A receptor = biological target: T1, human 5HT1A receptor (Homo sapiens, UniProt P08908); experiment: [3H] 8-OH-DPAT displacement binding in CHO cells transfected with human 5HT1A receptor; conditions: [3H] 8-OH-DPAT 1.5 nM
T1 construct: expressed in transfected cells
T1 sequence (P08908 1-422): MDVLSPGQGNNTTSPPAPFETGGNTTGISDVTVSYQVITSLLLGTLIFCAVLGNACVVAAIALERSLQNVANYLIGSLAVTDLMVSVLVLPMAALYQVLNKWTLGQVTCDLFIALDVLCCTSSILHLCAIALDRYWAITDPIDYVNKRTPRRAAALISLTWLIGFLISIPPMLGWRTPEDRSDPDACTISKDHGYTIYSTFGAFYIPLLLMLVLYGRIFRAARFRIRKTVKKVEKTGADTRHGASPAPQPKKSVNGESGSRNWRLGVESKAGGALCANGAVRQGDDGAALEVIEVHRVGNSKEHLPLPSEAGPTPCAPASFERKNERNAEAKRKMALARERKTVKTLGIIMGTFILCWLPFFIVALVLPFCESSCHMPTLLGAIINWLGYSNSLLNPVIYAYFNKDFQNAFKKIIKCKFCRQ
Protocol: 8-OH-DPAT binding in CHO cells stabily transfected with human 5HT1A receptor. Stabily transfected CHO cells are grown in DMEM containing 10% heat inactivated FBS and non-essential amino acids. Cells are scraped off the plate, transferred to centrifuge tubes, and washed twice by centrifugation (2000 rpm for 10 min., 4° C.) in buffer (50 mM Tris pH 7.5). The resulting pellets are aliquoted and placed at −80° C. On the day of assay, the cells are thawed on ice and resuspended in buffer. The binding assay is performed in a 96 well microtiter plate in a total volume of 250 μL. […] Following a 30 minute incubation at room temperature, the reaction is terminated by the addition of ice cold buffer and rapid filtration through a GF/B filter presoaked for 30 minutes in 0.5% PEI.

serotonin transporter = biological target: T2, serotonin transporter (Rattus norvegicus, UniProt P31652); experiment: 3H-Paroxetine binding to rat frontal cortical membranes; conditions: read-out: SSRi % Inhibition (rat brain) at 0.1 μM
T2 construct: frontal cortical membranes prepared from male S.D. rats; from tissue; host or cells: frontal cortical membranes of male Sprague-Dawley rats
Protocol: ^3H-Paroxetine binding to assess affinity of drugs for the serotonin transporter
A protocol similar to that used by Cheetham et al. (Neuropharmacol. 32:737, 1993) was used to determine the affinity of compounds for the serotonin transporter. Briefly, frontal cortical membranes prepared from male S.D. rats were incubated with ^3H-paroxetine (0.1 nM) for 60 min at 25° C. All tubes also contained either vehicle, test compound (one to eight concentrations), or a saturating concentration of fluoxetine (10 μM) to define […]. All reactions are terminated by the addition of ice cold Tris buffer followed by rapid filtration using a Tom Tech filtration device to separate bound from free ^3H-paroxetine. Bound radioactivity was quantitated using a Wallac 1205 Beta Plate® counter. Results achieved are expressed below as % inhibition of Paroxetine binding at a given concentration.

[1] = biological target: T3, human dopamine D2 receptor (Homo sapiens, UniProt P14416); experiment: [3H]-Spiperone displacement binding in CHO cells transfected with human dopamine D2 receptor; conditions: [3H]-Spiperone 0.5 nM, CHO cell membranes
T3 construct: expressed in transfected cells
Protocol: CHO cells expressing the human dopamine D2 receptor were cultured in suspension by expansion (every 3-4 days) in a serum free media to provide approximately 7.5×10^5 cells/ml. The cells were harvested by centrifugation (900×g for 10 min.), resuspended in half volume of 1×dulbecco PBS solution at pH 7.4, and after a further recentrifugation, the cell pellet was resuspended in 50 mM Tris.HCl (pH 7.4) containing 1.5 mM CaCl2, 5.0 mM EDTA, 5.0 mM KCl, 120 mM NaCl, 1.0 mM PMSF and 1.0 mg % leupeptin. The cells were homogenized, centrifuged at 40,000×g for 30 minutes and resuspended in fresh buffer (10 ml), and the process repeated twice. […] The binding assay is performed in a 96 well microtiter plate. 100 μl of buffer is added to the wells, and those receiving a displacer for nonspecific binding (NSB) assessment or test compounds receive 80 μl of incubation buffer. […] The reaction is initiated by the addition of 80 μl of the tissue membrane, and after 120 minutes at room temperature the wells are harvested using a Brandell® Harvester onto glass fiber filter presoaked in 0.1% polyethylimine.

T2 sequence (P31652 whole entry): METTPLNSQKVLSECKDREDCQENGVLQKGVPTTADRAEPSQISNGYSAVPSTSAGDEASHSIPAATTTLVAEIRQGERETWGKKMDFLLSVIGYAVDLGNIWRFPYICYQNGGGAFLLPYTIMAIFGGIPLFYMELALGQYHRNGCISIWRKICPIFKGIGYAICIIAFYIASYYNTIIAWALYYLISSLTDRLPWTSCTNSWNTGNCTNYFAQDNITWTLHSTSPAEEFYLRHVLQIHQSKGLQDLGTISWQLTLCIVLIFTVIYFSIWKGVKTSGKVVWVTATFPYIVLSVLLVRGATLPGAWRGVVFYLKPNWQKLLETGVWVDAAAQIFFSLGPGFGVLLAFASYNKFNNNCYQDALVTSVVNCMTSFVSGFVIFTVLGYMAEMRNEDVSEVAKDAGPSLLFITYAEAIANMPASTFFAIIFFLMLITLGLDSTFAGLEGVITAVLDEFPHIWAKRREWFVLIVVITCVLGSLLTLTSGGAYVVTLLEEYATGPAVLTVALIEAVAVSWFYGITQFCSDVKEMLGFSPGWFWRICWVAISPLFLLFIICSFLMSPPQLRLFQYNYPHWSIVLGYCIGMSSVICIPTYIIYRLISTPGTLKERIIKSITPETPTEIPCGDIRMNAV
T3 sequence (P14416 whole entry): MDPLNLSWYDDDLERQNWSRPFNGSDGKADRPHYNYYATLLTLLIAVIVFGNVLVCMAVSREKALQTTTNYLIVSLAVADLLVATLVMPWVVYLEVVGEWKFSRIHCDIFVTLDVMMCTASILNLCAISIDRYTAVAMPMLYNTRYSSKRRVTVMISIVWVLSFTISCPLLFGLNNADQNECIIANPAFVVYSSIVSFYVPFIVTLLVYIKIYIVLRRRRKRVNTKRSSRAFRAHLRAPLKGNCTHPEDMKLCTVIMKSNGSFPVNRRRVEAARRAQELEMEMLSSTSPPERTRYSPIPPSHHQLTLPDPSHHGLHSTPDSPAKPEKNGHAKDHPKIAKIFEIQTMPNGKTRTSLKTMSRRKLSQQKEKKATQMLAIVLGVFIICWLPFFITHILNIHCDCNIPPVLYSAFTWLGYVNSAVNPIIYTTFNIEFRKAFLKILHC

SMILES	melting point [°C]	Ki (human 5HT1A receptor) [nM]	inhibition at 0.1 µM (serotonin transporter) [%]	Ki [1] [nM]
O=[N+]([O-])c1ccc(OCC(O)CN2CCN(c3cccc4[nH]ccc34)CC2)cc1 (stereo not shown) (as salt: HCl) [Example 4, 1-[4-(1H-Indol-4-yl)-piperazin-1-yl]-3-(4-nitro-phenoxy)-propan-2-ol]	248			
OC(COc1ccc(F)cc1)CN1CCN(c2cccc3[nH]ccc23)CC1 (stereo not shown) (as salt: fumaric acid salt) [Example 6, 1-(4-Fluoro-phenoxy)-3-[4-(1H-indol-4-yl)piperazin-1-yl]-propan-2-ol]	234 to 235			
OC(COc1cccc2[nH]ccc12)CN1CCN(c2cccc3[nH]ccc23)CC1 (stereo not shown) [Example 1, 1-(1H-Indol-4-yloxy)-3-[4-(1H-indol-4-yl)piperazin-1-yl]-propan-2-ol]		6	32	
OC(COc1ccc(Cl)cc1)CN1CCN(c2cccc3[nH]ccc23)CC1 (stereo not shown) [Example 2, 1-(4-Chloro-phenoxy)-3-[4-(1H-indol-4-yl)piperazin-1-yl]-propan-2-ol]		7.6	13	33.5
COc1ccc(OCC(O)CN2CCN(c3cccc4[nH]ccc34)CC2)cc1 (stereo not shown) [Example 3, 1-[4-(1H-Indol-4-yl)-piperazin-1-yl]-3-(4-methoxy-phenoxy)-propan-2-ol]		1.8	17	
OC(COc1ccccc1Cl)CN1CCN(c2cccc3[nH]ccc23)CC1 (stereo not shown) [Example 5, 1-(2-Chloro-phenoxy)-3-[4-(1H-indol-4-yl)piperazin-1-yl]-propan-2-ol]		12.1	11	31.9
OC(COc1ccc(F)cc1)CN1CCN(c2cccc3[nH]ccc23)CC1 (stereo not shown) [Example 6, 1-(4-Fluoro-phenoxy)-3-[4-(1H-indol-4-yl)piperazin-1-yl]-propan-2-ol]		10.4	0	10.4
NC(=O)c1cc2c(OCC(O)CN3CCN(c4cccc5[nH]ccc45)CC3)cccc2[nH]1 (stereo not shown) [Example 7, 4 {2-Hydroxy-3-[4-(1H-indol-4-yl)-piperazin-1-yl]propoxy}-1H-indole-2-carboxylic acid amide]		7.2	3	
OC(COc1ccccc1-c1ccccc1)CN1CCN(c2cccc3[nH]ccc23)CC1 (stereo not shown) [Example 8, 1-(Biphenyl-2-yloxy)-3-[4-(1H-indol-4-yl)piperazin-1-yl]-propan-2-ol]		4.5	0	

The remaining lines, values ahead:

melting point [°C]	Ki (human 5HT1A receptor) [nM]	inhibition at 0.1 µM (serotonin transporter) [%]	Ki [1] [nM]	SMILES
147 to 150				OC(COc1cccc2[nH]ccc12)CN1CCN(c2cccc3[nH]ccc23)CC1 (stereo not shown) (as salt: fumaric acid salt) [Example 1, 1-(1H-Indol-4-yloxy)-3-[4-(1H-indol-4-yl)piperazin-1-yl]-propan-2-ol]
224 to 225				OC(COc1ccc(Cl)cc1)CN1CCN(c2cccc3[nH]ccc23)CC1 (stereo not shown) (as salt: fumaric acid salt) [Example 2, 1-(4-Chloro-phenoxy)-3-[4-(1H-indol-4-yl)piperazin-1-yl]-propan-2-ol]
207				OC(COc1ccccc1Cl)CN1CCN(c2cccc3[nH]ccc23)CC1 (stereo not shown) (as salt: fumaric acid salt) [Example 5, 1-(2-Chloro-phenoxy)-3-[4-(1H-indol-4-yl)piperazin-1-yl]-propan-2-ol]
214 to 215				OC(COc1ccccc1-c1ccccc1)CN1CCN(c2cccc3[nH]ccc23)CC1 (stereo not shown) (as salt: fumaric acid salt) [Example 8, 1-(Biphenyl-2-yloxy)-3-[4-(1H-indol-4-yl)piperazin-1-yl]-propan-2-ol]
	8.8	15		O=[N+]([O-])c1ccc(OCC(O)CN2CCN(c3cccc4[nH]ccc34)CC2)cc1 (stereo not shown) [Example 4, 1-[4-(1H-Indol-4-yl)-piperazin-1-yl]-3-(4-nitro-phenoxy)-propan-2-ol]
